Assay results reported in patent US4616009A, “Neuroleptic indole-3-carboxamide derivatives” (Yoshitomi Pharmaceutical Industries, Ltd., priority 1983, dated 1986).
Read-outs that look alike come from different tables or passages of the source.

Experiments:
[1] = reported in U.S. Pat. No. 3,527,761 / J. Med. Chem. 14, 1054 (1971); cited from earlier work
[2] = reported in U.S. Pat. No. 3,527,761 / J. Med. Chem. 14, 1054 (1971); cited from earlier work; remark: listed apart in the source
[3] = test system: apomorphine; experiment: Antiapomorphine activity in mice (spontaneous motility, Animex); format: in vivo, mice (male dd-strain); details: Mus musculus, 60 min before apomorphine hydrochloride 0.5 mg/kg s.c., dose for 50% suppression of spontaneous motility of control group over 20 min
Protocol: Antiapomorphine Activity in Mice
Groups of 5 male dd-strain mice were used. Test compounds were orally or intraperitoneally administered and 60 minutes thereafter, 0.5 mg/kg of apomorphine hydrochloride was subcutaneously administered. Immediately thereafter, spontaneous motility of the mice was measured with the aid of Animex (manufactured by Columbus Company, U.S.A.) for 20 minutes. The procedure was repeated three times with respective groups. The dose of test compounds required for 50% suppression of spontaneous motility of control group was graphically intraporated and determined as ED50 value.

[4] = Acute toxicity in mice, oral administration; format: in vivo; details: 500 mg/kg, 5 days observation, male mice
Source text: The acute toxicity of the compounds of the present invention was studied in 5 male mice weighing 30 to 45 g.

[5] = reported; cited from earlier work
[6] = antihypertensive activity; details: according to studies of the present inventors
[7] = prior art; cited from earlier work
[8] = test system: apomorphine; experiment: apomorphine-antagonistic activity (studies of the present inventors); details: according to studies of the present inventors

Compound | ED50 ([3]; po) | further results
O=C(NC1CCN(CCc2c[nH]c3ccccc23)CC1)c1c[nH]c2ccccc12 [3-{2-[4-(3-indolecarboxamido)-piperidino]ethyl}indole] | – | antihypertensive activity [1]: having antihypertensive; antihistaminic activity [2]: antihistaminic activities
CCN1CCCC1CNC(=O)c1c(C)[nH]c2ccccc12 (stereo not shown) [Example 1, N-(1-ethyl-2-pyrrolidinylmethyl)-2-methylindole-3-carboxamide] | 17 mg/kg | –
Cc1[nH]c2ccc(F)cc2c1C(=O)NC1CCN(Cc2ccccc2)CC1 [Example 2, N-(1-benzyl-4-piperidyl)-5-fluoro-2-methylindole-3-carboxamide] | 4.6 mg/kg | mortality (acute toxicity) [4]: All animals were survived
O=C(NC1CCN(Cc2ccccc2)CC1)c1c[nH]c2ccc(F)cc12 [Example 3, N-(1-benzyl-4-piperidyl)-5-fluoroindole-3-carboxamide] | 9.5 mg/kg | –
Cc1c(C(=O)NC2CCN(Cc3ccccc3)CC2)c2cc(F)ccc2n1C [Example 4, N-(1-benzyl-4-piperidyl)-5-fluoro-1,2-dimethylindole-3-carboxamide] | 27 mg/kg | –
Cc1[nH]c2ccccc2c1C(=O)NC1CCN(Cc2ccccc2)CC1 [Example 7, N-(1-benzyl-4-piperidyl)-2-methylindole-3-carboxamide] | 8.7 mg/kg | –
O=C(NC1CCN(Cc2ccccc2)CC1)c1c[nH]c2ccccc12 [Example 8, N-(1-Benzyl-4-piperidyl)indole-3-carboxamide] | 7 mg/kg | –
CCN1CCCC1CNC(=O)c1c(C)[nH]c2ccc(Cl)cc12 (stereo not shown) [Example 9, 5-Chloro-N-(1-ethyl-2-pyrrolidinylmethyl)-2-methylindole-3-carboxamide] | 30 mg/kg | –
CCN1CCCC1CNC(=O)c1c(C)[nH]c2ccc(F)cc12 (stereo not shown) [Example 10, N-(1-Ethyl-2-pyrrolidinylmethyl)-5-fluoro-2-methylindole-3-carboxamide] | – | ED50 ([3]; ip): 10 mg/kg
Cc1[nH]c2ccc(F)cc2c1C(=O)NC1CCN(Cc2ccccc2)C1 (stereo not shown) [Example 12, N-(1-Benzyl-3-pyrrolidinyl)-5-fluoro-2-methylindole-3-carboxamide] | 5.6 mg/kg | –
Cc1[nH]c2ccc(F)cc2c1C(=O)NC1CCN(Cc2ccc(Cl)cc2)CC1 [Example 13, N-[1-(p-Chlorobenzyl)-4-piperidyl]-5-fluoro-2-methylindole-3-carboxamide] | 5.6 mg/kg | –
Cc1[nH]c2ccc(F)cc2c1C(=O)NC1CCN(Cc2ccc(F)cc2)CC1 [Example 14, 5-Fluoro-N-[1-(p-fluorobenzyl)-4-piperidyl]-2-methylindole-3-carboxamide] | 5.2 mg/kg | –
Cc1[nH]c2ccc(F)cc2c1C(=O)NC1CCN(Cc2cccc(Cl)c2)CC1 [Example 18, N-[1-(m-Chlorobenzyl)-4-piperidyl]-5-fluoro-2-methylindole-3-carboxamide] | 24 mg/kg | –
CCN1CCCC1CNC(=O)c1cc(S(N)(=O)=O)ccc1OC (stereo not shown) [Sulpiride, reference compound] | 330 mg/kg | bioavailability in oral administration [5]: low bioavailability
O=C(NC1CCN(CCc2c[nH]c3ccccc23)CC1)c1ccccc1 [indoramin, 3-[2-(4-benzamido-1-piperidyl)-ethyl]indole] | – | antihypertensive activity [1]: stronger antihypertensive activity; antihistaminic activity [2]: exhibits antihistaminic activity; antihypertensive activity [6]: relatively strong; anticonvulsant activity [7]: anticonvulsant activity; apomorphine-antagonistic activity [8]: weak
